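Step 1: Grow cells in 96-well plates. Step 2: Expose to compound for 48 hours at 5 concentrations. Step 3: Interpolate endpoints linearly; if unreached, use highest concentration. GI50 is the concentration that inhibits growth by half. TGI denotes the concentration required for complete inhibition of growth.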
Assays:
Assay in all cases: inhibition of tumour cell growth, NCI panel, 48 h; in the data active = GI50 below about 0.43 µM; inactive = the rest
NCI-H522 lung = tested on: NCI-H522 lung
SK-OV-3 ovarian = tested on: SK-OV-3 ovarian
SF-539 CNS = tested on: SF-539 CNS
DU-145 prostate = tested on: DU-145 prostate
SK-MEL-2 melanoma = tested on: SK-MEL-2 melanoma
HCT-15 colon = tested on: HCT-15 colon
786-0 renal = tested on: 786-0 renal
CAKI-1 renal = tested on: CAKI-1 renal
PC-3 prostate = tested on: PC-3 prostate
KM12 colon = tested on: KM12 colon
OVCAR-8 ovarian = tested on: OVCAR-8 ovarian
M14 melanoma = tested on: M14 melanoma
HCC-2998 colon = tested on: HCC-2998 colon
NCI/ADR-RES ovarian = tested on: NCI/ADR-RES ovarian
TK-10 renal = tested on: TK-10 renal
HT29 colon = tested on: HT29 colon
SF-268 CNS = tested on: SF-268 CNS
A549 NSCLC = tested on: A549 NSCLC
NCI-H226 lung = tested on: NCI-H226 lung
SK-MEL-28 melanoma = tested on: SK-MEL-28 melanoma
SW-620 colon = tested on: SW-620 colon
OVCAR-3 ovarian = tested on: OVCAR-3 ovarian
IGROV1 ovarian = tested on: IGROV1 ovarian
HL-60(TB) leukemia = tested on: HL-60(TB) leukemia
NCI-H23 lung = tested on: NCI-H23 lung
MALME-3M melanoma = tested on: MALME-3M melanoma
SNB-19 CNS = tested on: SNB-19 CNS
UO-31 renal = tested on: UO-31 renal
RPMI-8226 leukemia = tested on: RPMI-8226 leukemia
OVCAR-4 ovarian = tested on: OVCAR-4 ovarian
MDA-MB-231 breast = tested on: MDA-MB-231 breast
SF-295 CNS = tested on: SF-295 CNS
NCI-H460 lung = tested on: NCI-H460 lung
SN12C renal = tested on: SN12C renal
HCT-116 colon = tested on: HCT-116 colon
EKVX NSCLC = tested on: EKVX NSCLC
UACC-257 melanoma = tested on: UACC-257 melanoma
SK-MEL-5 melanoma = tested on: SK-MEL-5 melanoma
U251 CNS = tested on: U251 CNS
K-562 leukemia = tested on: K-562 leukemia
MDA-N = tested on: MDA-N
HOP-92 NSCLC = tested on: HOP-92 NSCLC
T-47D breast = tested on: T-47D breast
MCF7 breast = tested on: MCF7 breast
COLO 205 colon = tested on: COLO 205 colon
HOP-62 NSCLC = tested on: HOP-62 NSCLC
MOLT-4 leukemia = tested on: MOLT-4 leukemia
OVCAR-5 ovarian = tested on: OVCAR-5 ovarian
A498 renal = tested on: A498 renal
CCRF-CEM leukemia = tested on: CCRF-CEM leukemia
ACHN renal = tested on: ACHN renal
MDA-MB-435 = tested on: MDA-MB-435
UACC-62 melanoma = tested on: UACC-62 melanoma
RXF 393 renal = tested on: RXF 393 renal
LOX IMVI melanoma = tested on: LOX IMVI melanoma
SR leukemia = tested on: SR leukemia
BT-549 breast = tested on: BT-549 breast
SNB-75 CNS = tested on: SNB-75 CNS
HS 578T breast = tested on: HS 578T breast

Cc1cn(CC2=NCC(O)CN2)c(=O)[nH]c1=O (stereo not given)
> 100 µM: TGI (NCI-H522 lung) | TGI (SK-OV-3 ovarian) | TGI (SF-539 CNS) | TGI (DU-145 prostate) | TGI (SK-MEL-2 melanoma) | TGI (HCT-15 colon) | TGI (786-0 renal) | TGI (CAKI-1 renal) | TGI (PC-3 prostate) | TGI (KM12 colon) | TGI (OVCAR-8 ovarian) | TGI (M14 melanoma) | TGI (HCC-2998 colon) | TGI (NCI/ADR-RES ovarian) | TGI (TK-10 renal) | TGI (HT29 colon) | TGI (SF-268 CNS) | TGI (A549 NSCLC) | TGI (NCI-H226 lung) | TGI (SK-MEL-28 melanoma) | TGI (SW-620 colon) | TGI (OVCAR-3 ovarian) | TGI (IGROV1 ovarian) | TGI (HL-60(TB) leukemia) | TGI (NCI-H23 lung) | TGI (MALME-3M melanoma) | TGI (SNB-19 CNS) | TGI (UO-31 renal) | TGI (RPMI-8226 leukemia) | TGI (OVCAR-4 ovarian) | TGI (MDA-MB-231 breast) | TGI (SF-295 CNS) | TGI (NCI-H460 lung) | TGI (SN12C renal) | TGI (HCT-116 colon) | TGI (EKVX NSCLC) | TGI (UACC-257 melanoma) | TGI (SK-MEL-5 melanoma) | TGI (U251 CNS) | TGI (K-562 leukemia) | TGI (MDA-N) | TGI (HOP-92 NSCLC) | TGI (T-47D breast) | TGI (MCF7 breast) | TGI (COLO 205 colon) | TGI (HOP-62 NSCLC) | TGI (MOLT-4 leukemia) | TGI (OVCAR-5 ovarian) | TGI (A498 renal) | TGI (CCRF-CEM leukemia) | TGI (ACHN renal) | TGI (MDA-MB-435) | TGI (UACC-62 melanoma) | TGI (RXF 393 renal) | TGI (LOX IMVI melanoma)

C=C(C)[C@@H]1/C=C(/C(C)C)CC[C@@]2(C)OC2CC[C@H](C)CC1=O (stereo not given in full)
> 71.6 µM: TGI (SF-295 CNS)
71.6 µM: TGI (MDA-MB-435)
37.7 µM: TGI (NCI-H460 lung)
> 59.6 µM: TGI (786-0 renal)
59.8 µM: TGI (NCI/ADR-RES ovarian)
54.1 µM: TGI (RPMI-8226 leukemia)
42.7 µM: TGI (SF-539 CNS)
37.9 µM: TGI (SK-MEL-5 melanoma)
> 100 µM: TGI (SK-OV-3 ovarian) | TGI (SK-MEL-2 melanoma) | TGI (BT-549 breast) | TGI (SF-268 CNS) | TGI (A549 NSCLC) | TGI (SK-MEL-28 melanoma) | TGI (SNB-75 CNS) | TGI (HS 578T breast) | TGI (MALME-3M melanoma) | TGI (SNB-19 CNS) | TGI (OVCAR-4 ovarian) | TGI (EKVX NSCLC) | TGI (UACC-257 melanoma) | TGI (UACC-62 melanoma)
> 63.5 µM: TGI (OVCAR-5 ovarian)
> 93.5 µM: TGI (NCI-H522 lung)
> 63.3 µM: TGI (IGROV1 ovarian)
> 55 µM: TGI (ACHN renal)
> 63.8 µM: TGI (MCF7 breast)
> 70.5 µM: TGI (OVCAR-8 ovarian)
> 57.9 µM: TGI (HOP-62 NSCLC)
76.2 µM: TGI (HL-60(TB) leukemia)
43.9 µM: TGI (NCI-H23 lung)
> 57.7 µM: TGI (LOX IMVI melanoma)
> 93.2 µM: TGI (A498 renal)
52.3 µM: TGI (CCRF-CEM leukemia)
36 µM: TGI (DU-145 prostate)
> 55.7 µM: TGI (UO-31 renal)
66.1 µM: TGI (OVCAR-3 ovarian)
65.7 µM: TGI (SW-620 colon)
40.9 µM: TGI (MOLT-4 leukemia)
> 62.8 µM: TGI (M14 melanoma)
> 65.9 µM: TGI (HCC-2998 colon)
> 76.7 µM: TGI (HOP-92 NSCLC)
53.8 µM: TGI (CAKI-1 renal)
inactive: GI50 (SR leukemia) 2.18 µM | GI50 (NCI-H522 lung) 31.2 µM | GI50 (SK-OV-3 ovarian) > 100 µM | GI50 (SF-539 CNS) 21.9 µM | GI50 (DU-145 prostate) 19.4 µM | GI50 (SK-MEL-2 melanoma) 52.1 µM | GI50 (HCT-15 colon) 38.6 µM | GI50 (786-0 renal) > 42.8 µM | GI50 (BT-549 breast) 38.8 µM | GI50 (CAKI-1 renal) 24.1 µM | GI50 (PC-3 prostate) 22.2 µM | GI50 (KM12 colon) 18.6 µM | GI50 (OVCAR-8 ovarian) 33.9 µM | GI50 (M14 melanoma) 30.8 µM | GI50 (HCC-2998 colon) > 44.4 µM | GI50 (NCI/ADR-RES ovarian) 25.4 µM | GI50 (TK-10 renal) 27.6 µM | GI50 (HT29 colon) 31.6 µM | GI50 (SF-268 CNS) 37.7 µM | GI50 (A549 NSCLC) 28.8 µM | GI50 (NCI-H226 lung) > 38.8 µM | GI50 (SK-MEL-28 melanoma) 59.3 µM | GI50 (SW-620 colon) 25.4 µM | GI50 (OVCAR-3 ovarian) 24.8 µM | GI50 (SNB-75 CNS) > 100 µM | GI50 (IGROV1 ovarian) 24.7 µM | GI50 (HL-60(TB) leukemia) 25 µM | GI50 (NCI-H23 lung) 21.2 µM | GI50 (HS 578T breast) 46 µM | GI50 (MALME-3M melanoma) 35.3 µM | GI50 (SNB-19 CNS) 60 µM | GI50 (UO-31 renal) 23.2 µM | GI50 (RPMI-8226 leukemia) 20.1 µM | GI50 (OVCAR-4 ovarian) 73.8 µM | GI50 (MDA-MB-231 breast) 19.3 µM | GI50 (SF-295 CNS) 27.4 µM | GI50 (NCI-H460 lung) 18.7 µM | GI50 (SN12C renal) 21 µM | GI50 (HCT-116 colon) 17.3 µM | GI50 (EKVX NSCLC) 52.1 µM | GI50 (UACC-257 melanoma) 47.6 µM | GI50 (SK-MEL-5 melanoma) 19.4 µM | GI50 (U251 CNS) 27.6 µM | GI50 (K-562 leukemia) 19.7 µM | GI50 (HOP-92 NSCLC) 26.3 µM | GI50 (T-47D breast) 27.4 µM | GI50 (MCF7 breast) 27.7 µM | GI50 (COLO 205 colon) 24.9 µM | GI50 (HOP-62 NSCLC) 30.3 µM | GI50 (MOLT-4 leukemia) 16.3 µM | GI50 (OVCAR-5 ovarian) > 43.5 µM | GI50 (A498 renal) 31.6 µM | GI50 (CCRF-CEM leukemia) 20.3 µM | GI50 (ACHN renal) 27.5 µM | GI50 (MDA-MB-435) 26.6 µM | GI50 (UACC-62 melanoma) > 100 µM | GI50 (RXF 393 renal) 3.37 µM | GI50 (LOX IMVI melanoma) 22.4 µM
> 61 µM: TGI (COLO 205 colon)
98.8 µM: TGI (HT29 colon)
> 68.6 µM: TGI (HCT-15 colon)
46 µM: TGI (SN12C renal)
> 79.4 µM: TGI (TK-10 renal)
> 62.2 µM: TGI (U251 CNS)
> 49.1 µM: TGI (RXF 393 renal)
> 80.3 µM: TGI (T-47D breast)
39.7 µM: TGI (KM12 colon)
31.7 µM: TGI (HCT-116 colon)
49.5 µM: TGI (MDA-MB-231 breast)
54.3 µM: TGI (PC-3 prostate)
58.6 µM: TGI (K-562 leukemia)
> 66.9 µM: TGI (NCI-H226 lung)

Source: PubChem BioAssay (NCI)
